Assay results reported in patent US20220323594A1, “LIPIDATED CATIONIC PEPTIDE-PEG COMPOSITIONS FOR NUCLEIC ACID DELIVERY” (NUTCRACKER THERAPEUTICS, INC., priority 2019, published 2022).

Experiments:
HeLa cells [1] = assay: In vitro Fluc expression with variable peptoid:mRNA mass ratio, 2% DMG-PEG2000; assay type: cell-based; conditions: 24 h; for Observed Luciferase Expression (RLU) for Given Formulation Mass Ratio 2:1: 2% (w/w) DMG-PEG2000, peptoid:mRNA 2:1; for Observed Luciferase Expression (RLU) for Given Formulation Mass Ratio 3.5:1: 2% (w/w) DMG-PEG2000, peptoid:mRNA 3.5:1; for Observed Luciferase Expression (RLU) for Given Formulation Mass Ratio 5:1: 2% (w/w) DMG-PEG2000, peptoid:mRNA 5:1; for Observed Luciferase Expression (RLU) for Given Formulation Mass Ratio 7.5:1: 2% (w/w) DMG-PEG2000, peptoid:mRNA 7.5:1
Summary of the method: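 HeLa cells exposed 24 hours to amino lipidated peptoid/Fluc mRNA formulations containing 2% w/w DMG-PEG2000 (relative to peptoid), across peptoid:mRNA mass ratios of 2:1 to 7.5:1. Read-out: average luciferase bioluminescence (RLU).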

Balb/c mice [2] = assay: In vivo expression of Fluc following subcutaneous or intramuscular administration; conditions: for Total Flux (photons/sec) I.M. (0.05 mpk): mRNA 0.05 mpk; for Total Flux (photons/sec) S.C. (0.1 mpk): subcutaneous, mRNA 0.1 mpk
Procedure: In addition to IV administration, amino lipidated peptoids are also effective for local administration of mRNA through subcutaneous (S.C.) or intramuscular (I.M.) routes of administration. […] For these examples, mRNA was administered at a dose of 0.1 milligrams/kilogram (mpk) for subcutaneous or 0.05 mpk for intramuscular. In these cases, the overall expression was higher following intramuscular injections. […] Additional experiments were carried out to assess any variability in biodistribution as a function of the loading mass ratio of amino lipidated peptoid to the Fluc mRNA. FIG. 8A depicts a plot of total photon flux for formulations of amino lipidated peptoid compound 28 with 2% DMG-PEG 2000 and Fluc mRNA at different peptoid:mRNA ratios (1:1, 2:1, 5:1, 7.5:1 and 10:1).

HeLa cells [3] = assay: In vitro expression of firefly luciferase (Fluc) after treatment with Fluc mRNA/amino lipidated peptoid formulations, no PEG or 2% DMG-PEG2000; assay type: cell-based
Summary of the method: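 HeLa cells received 100 ng/well Fluc mRNA complexed with amino lipidated peptoid at 5:1 peptoid:mRNA (w/w), either peptoid alone or with 2% w/w DMG-PEG2000. Expression quantified as RLU by luminescence at 6 and 24 h.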

[4] = MTT viability assay after treatment with Fluc mRNA/amino lipidated peptoid formulations; assay type: cell-based; conditions: human, HeLa cells
Summary of the method: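 Viability relative to untreated cells came from the formazan read-out after 2 h with 1.5 mg/mL MTT and acidic isopropanol/Triton lysis. The MTT step followed an 8 h exposure to 100 ng/well Fluc mRNA in 5:1 peptoid:mRNA, 2% DMG-PEG2000 formulations and a further 48 h of culture.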

Balb/c mice [5] = assay: In vivo organ-specific bioluminescence (biodistribution of Fluc) following IV administration; conditions: for Total Flux (p/s) Liver: dissected liver; for Total Flux (p/s) Lung: dissected lung; for Total Flux (p/s) Spleen: dissected spleen
Procedure: Amino lipidated peptoid delivery vehicles are effective for in vivo administration of Fluc mRNA to Balb/c mice (n=3) through multiple routes of administration. Briefly, representative amino lipidated peptoid/Fluc formulations (prepared at a 5:1 mass ratio of amino lipidated peptoid:mRNA unless noted, with 2% w/w DMG-PEG2000) were administered at a dose of 0.5 mg/kg via a tail-vein injection, and the resulting bioluminescence was quantified after 8 hours. […] Organ-specific bioluminescence was quantified by sacrificing the treated animal, dissecting out the organs of interest, and separately quantifying the resulting bioluminescence. […] FIG. 7C depicts a bar chart quantifying the organ-specific biodistribution of the formulations as a function of total photon flux.

[6] = Dynamic light scattering (DLS) of mRNA/peptoid formulations: particle size and polydispersity; assay type: physicochemical; conditions: Fluc mRNA/peptoid formulation; for Size PDI: size polydispersity index by DLS, 5:1 mass ratio; for Size (nm): volume average particle size/diameter by DLS, 5:1 mass ratio peptoid:cargo
Summary of the method: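 Volume-average particle diameter (nm) and PDI were measured by dynamic light scattering. Formulations combined peptoid diluted in ethanol with Fluc mRNA in pH 5.5 PBS at 1:3 by volume, mixed by pipetting at 5:1 peptoid:mRNA by mass.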

Balb/c mice [7] = assay: In vivo whole-body expression of Fluc following IV administration; conditions: Balb/c mice (n=3), IV tail-vein, 0.5 mg/kg, 5:1 peptoid:mRNA, 2% w/w DMG-PEG2000, 8 hours
Procedure: Amino lipidated peptoid delivery vehicles are effective for in vivo administration of Fluc mRNA to Balb/c mice (n=3) through multiple routes of administration. Briefly, representative amino lipidated peptoid/Fluc formulations (prepared at a 5:1 mass ratio of amino lipidated peptoid:mRNA unless noted, with 2% w/w DMG-PEG2000) were administered at a dose of 0.5 mg/kg via a tail-vein injection, and the resulting bioluminescence was quantified after 8 hours.

[8] = mRNA encapsulation by fluorescence of Qubit RNA HS dye before and after lysis with Triton X-100; assay type: physicochemical; conditions: percentage of mRNA encapsulation; Fluc mRNA/peptoid formulation, 5:1 mass ratio
Summary of the method: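 Encapsulation was measured by comparing Qubit RNA HS fluorescence of intact particles with that after Triton X-100 lysis. Particles were amino-lipidated cationic peptoids complexed with firefly luciferase mRNA at 5:1 peptoid:cargo by mass, mixed by pipetting.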

[9] = no PEG, peptoid:Fluc mRNA 5:1 w/w, 100 ng/well, 6 h of treatment
[10] = no PEG, peptoid:Fluc mRNA 5:1 w/w, 100 ng/well, 24 h of treatment
[11] = with 2% (w/w) DMG-PEG2000, peptoid:mRNA 5:1, 6 h after treatment
[12] = with 2% (w/w) DMG-PEG2000, peptoid:mRNA 5:1, 24 h after treatment

| SMILES | Observed Luciferase Expression (RLU) for Given Formulation Mass Ratio 2:1 (HeLa cells [1]) [RLU] | Observed Luciferase Expression (RLU) for Given Formulation Mass Ratio 3.5:1 (HeLa cells [1]) [RLU] | Observed Luciferase Expression (RLU) for Given Formulation Mass Ratio 5:1 (HeLa cells [1]) [RLU] | Observed Luciferase Expression (RLU) for Given Formulation Mass Ratio 7.5:1 (HeLa cells [1]) [RLU] | Total Flux (photons/sec) I.M. (0.05 mpk) (Balb/c mice [2]; intramuscular) [photons/sec] | Total Flux (photons/sec) S.C. (0.1 mpk) (Balb/c mice [2]) [photons/sec] | Luciferase Expression (RLU) 6 h (HeLa cells [3]; [9]) [RLU] | Luciferase Expression (RLU) 24 h (HeLa cells [3]; [10]) [RLU] | Luciferase Expression (RLU) 6 h (HeLa cells [3]; [11]) [RLU] | Luciferase Expression (RLU) 24 h (HeLa cells [3]; [12]) [RLU] | viability at 8 h, 500 ng/well ([4]; Relative Viability (%) 2% PEG) [%] | viability at 8 h, 500 ng/well ([4]; Relative Viability (%) No PEG) [%] | Total Flux (p/s) Liver (Balb/c mice [5]) [p/s] | Total Flux (p/s) Lung (Balb/c mice [5]) [p/s] | Total Flux (p/s) Spleen (Balb/c mice [5]) [p/s] | Size PDI [6] | Size (nm) [6] [nm] | Total Flux (photons/sec), whole body (Balb/c mice [7]) [photons/sec] | % Encapsulation [8] [%] | also measured |
| --- | --- | --- | --- | --- | --- | --- | --- | --- | --- | --- | --- | --- | --- | --- | --- | --- | --- | --- | --- | --- |
| CCCCCCCCCCN(CC(N)=O)C(=O)CN(CCCCCCCCCC)C(=O)CN(CCc1ccccc1)C(=O)CN(CCc1ccccc1)C(=O)CN(CCN)C(=O)CN(CCc1ccccc1)C(=O)CN(CCc1ccccc1)C(=O)CN(CCN)C(=O)CN(CCc1ccccc1)C(=O)CN(CCc1ccccc1)C(=O)CNCCN [Compound 2] | 2.45E+04 | 1.80E+04 | 2.81E+04 | 1.49E+03 | 1.27E+05 | 8.31E+04 | 2.35E+02 | 1.35E+02 | 5.40E+01 | 1.17E+02 | 92.6 | 90.6 | 1.40E+06 | 2.46E+07 | 3.39E+06 | 0.128 | 150 | 1.37E+07 | 100.3 |  |
| CCCCCCCCCCN(CC(N)=O)C(=O)CN(CCCCCCCCCC)C(=O)CN(CCc1ccccc1)C(=O)CN(CCc1ccccc1)C(=O)CN(CCN)C(=O)CN(CCc1ccccc1)C(=O)CN(CCc1ccccc1)C(=O)CNCCN [Compound 10] | 5.57E+03 | 1.23E+04 | 3.51E+04 | 3.57E+02 | 9.01E+05 | 1.40E+05 | 1.88E+03 | 7.01E+02 | 2.21E+02 | 2.43E+02 | 108 | 101 | 5.85E+05 | 5.14E+06 | 2.17E+06 | 0.009 | 157 | 1.04E+07 | 92.6 |  |
| CCCCCCCCCCN(CC(N)=O)C(=O)CN(CCCCCCCCCC)C(=O)CN(CCN)C(=O)CN(CCN)C(=O)CNCCN [Compound 14] | 8.31E+01 | 1.42E+02 | 4.29E+01 | 2.82E+01 |  |  | 3.20E+01 | 1.43E+01 | 4.67E+00 | 9.00E+00 | 91 |  | 4.47E+04 | 4.17E+04 | 4.89E+04 | 0.233 | 554 | 4.58E+05 | 77.3 |  |
| CCCCCCCCCCN(CC(N)=O)C(=O)CN(CCCCCCCCCC)C(=O)CN(CCCCCCCCCC)C(=O)CN(CCCCCCCCCC)C(=O)CN(CCc1ccccc1)C(=O)CN(CCc1ccccc1)C(=O)CN(CCCN)C(=O)CN(CCc1ccccc1)C(=O)CN(CCc1ccccc1)C(=O)CN(CCCN)C(=O)CN(CCc1ccccc1)C(=O)CN(CCc1ccccc1)C(=O)CNCCCN [Compound 28] | 1.26E+02 | 1.93E+03 | 5.75E+03 | 2.07E+04 | 7.23E+06 | 1.65E+06 | 9.59E+02 | 4.97E+03 | 8.33E+02 | 6.94E+02 | 92.7 | 85.4 | 1.10E+07 | 7.08E+07 | 2.16E+08 | 0.085 | 308 | 2.36E+08 | 52.0 | expression after IM administration compared with Compound 8 (Balb/c mice [2]; intramuscular): significantly outperformed that example; organ localization of Fluc expression (Balb/c mice [5]; organ-specific bioluminescence): preferential localization in other organs such as the spleen |
